Measurements from the CheMixHub viscosity set.
Where “and” joins values, the source holds several entries; their conditions need not be identical. Equal values may be shown once.

What was measured:
[1] = xn = mol fraction of the nth substance listed

O=C1CCCO1
viscosity
Details	293.15 K	298.15 K	303.15 K	308.15 K	313.15 K	318.15 K	323.15 K
100 kPa	1.92 mPa·s	1.73 mPa·s and 1.73 mPa·s (3×)	1.63 mPa·s and 1.63 mPa·s (3×) and 1.59 mPa·s	1.52 mPa·s and 1.52 mPa·s (3×)	1.42 mPa·s and 1.42 mPa·s (3×)	1.35 mPa·s and 1.35 mPa·s (3×)	1.3 mPa·s and 1.3 mPa·s (3×)
101 kPa	–	1.74 mPa·s and 1.764 mPa·s	–	1.477 mPa·s and 1.522 mPa·s and 1.429 mPa·s	–	1.286 mPa·s and 1.33 mPa·s and 1.234 mPa·s	1.206 mPa·s and 1.22 mPa·s
101.3 kPa	–	1.75 mPa·s	–	–	–	–	–
101.33 kPa	1.883 mPa·s	1.738 mPa·s and 1.745 mPa·s	1.765 mPa·s and 1.61 mPa·s and 1.612 mPa·s	1.498 mPa·s	1.39 mPa·s	–	1.213 mPa·s

OCC(F)(F)F
Details	viscosity
293.15 K, 101 kPa	2.11 mPa·s and 2.108 mPa·s
298 K, 101.3 kPa	1.737 mPa·s
298.15 K, 100 kPa	1.744 mPa·s
298.15 K, 101 kPa	1.84 mPa·s and 1.722 mPa·s
298.15 K, 101.33 kPa	1.73 mPa·s
303 K, 101.3 kPa	1.357 mPa·s
303.15 K, 101 kPa	1.62 mPa·s
303.15 K, 101.33 kPa	1.53 mPa·s
308 K, 101.3 kPa	1.201 mPa·s
308.15 K, 101 kPa	1.43 mPa·s
308.15 K, 101.33 kPa	1.35 mPa·s
313 K, 101.3 kPa	1.054 mPa·s
313.15 K, 100 kPa	1.23 mPa·s
313.15 K, 101 kPa	1.27 mPa·s and 1.203 mPa·s
318.15 K, 100 kPa	1.1 mPa·s
318.15 K, 101 kPa	1.13 mPa·s
318.15 K, 101.33 kPa	1.09 mPa·s
323.15 K, 100 kPa	0.99 mPa·s and 0.948 mPa·s
323.15 K, 101 kPa	1.02 mPa·s and 0.963 mPa·s

C=CC[P+](c1ccccc1)(c1ccccc1)c1ccccc1.[Br-] + OCCOCCO
viscosity [mPa·s], [1], 100 kPa
Details	293.15 K	298.15 K	303.15 K	308.15 K	313.15 K	318.15 K	323.15 K
x1 = 0.05884	57.19	43.59	33.68	26.69	21.74	17.83	14.79
x1 = 0.09089	70.92	53.42	41.11	32.27	25.8	20.96	17.27
x1 = 0.2	213.2	150.8	109.1	81.11	61.8	47.98	37.87

Brc1ccccc1 + OCCOCCOCCO
viscosity [mPa·s], [1], 101 kPa
Details	298.15 K	308.15 K
x2 = 0.0462	1.316	1.168
x2 = 0.1502	2.173	1.769
x2 = 0.2493	3.39	2.568
x2 = 0.3505	5.164	3.674
x2 = 0.4433	7.374	5.002
x2 = 0.4974	8.957	5.935
x2 = 0.5484	10.66	6.933
x2 = 0.6475	14.61	9.221
x2 = 0.7514	19.62	12.15
x2 = 0.8484	25.03	15.37
x2 = 0.937	30.42	18.72

C=CC[P+](c1ccccc1)(c1ccccc1)c1ccccc1.[Br-] + OCCOCCOCCO
viscosity [mPa·s], [1], 100 kPa
Details	293.15 K	298.15 K	303.15 K	308.15 K	313.15 K	318.15 K	323.15 K
x1 = 0.05879	76.63	57.94	44.82	35.26	28.28	22.99	18.97
x1 = 0.0909	95.29	71.69	54.83	42.76	33.94	27.41	22.42
x1 = 0.2	233.7	166.5	121.6	90.91	69.36	53.99	42.73

BrCCBr + c1ccccc1
[1], 101.33 kPa
Details	viscosity [mPa·s]
298.15 K, x1 = 0.0999	0.6395
298.15 K, x1 = 0.2016	0.6889
298.15 K, x1 = 0.312	0.8229
298.15 K, x1 = 0.4109	0.8428
298.15 K, x1 = 0.5099	0.8941
298.15 K, x1 = 0.6073	1.034
298.15 K, x1 = 0.7101	1.116
298.15 K, x1 = 0.8038	1.253
298.15 K, x1 = 0.9005	1.422
308.15 K, x1 = 0.1052	0.5588
308.15 K, x1 = 0.2078	0.6034
308.15 K, x1 = 0.3146	0.6379
308.15 K, x1 = 0.4086	0.7026
308.15 K, x1 = 0.5068	0.7767
308.15 K, x1 = 0.6088	0.8569
308.15 K, x1 = 0.7019	0.961
308.15 K, x1 = 0.8028	1.128
308.15 K, x1 = 0.9019	1.219

Brc1ccccc1 + c1ccccc1
[1], 101 kPa
Details	viscosity [mPa·s]
298.15 K, x1 = 0.0867	0.636
298.15 K, x1 = 0.116	0.649
298.15 K, x1 = 0.8	0.96
303.15 K, x1 = 0.086	0.61
303.15 K, x1 = 0.176	0.653
303.15 K, x1 = 0.268	0.7
303.15 K, x1 = 0.362	0.742
303.15 K, x1 = 0.46	0.785
303.15 K, x1 = 0.561	0.827
303.15 K, x1 = 0.665	0.867
303.15 K, x1 = 0.774	0.909
303.15 K, x1 = 0.884	0.951
308.15 K, x1 = 0.0867	0.558
308.15 K, x1 = 0.116	0.568
318.15 K, x1 = 0.0867	0.492
318.15 K, x1 = 0.116	0.504
323.15 K, x1 = 0.0867	0.461
323.15 K, x1 = 0.116	0.47
323.15 K, x1 = 0.8	0.711

C1COCCO1 + c1ccccc1
[1], 303.15 K, 101 kPa
Details	viscosity [mPa·s]
x1 = 0.1009	0.603
x1 = 0.104	0.599
x1 = 0.207	0.644
x1 = 0.3017	0.687
x1 = 0.309	0.686
x1 = 0.4005	0.736
x1 = 0.411	0.733
x1 = 0.4969	0.787
x1 = 0.511	0.779
x1 = 0.6	0.841
x1 = 0.61	0.828
x1 = 0.7019	0.895
x1 = 0.709	0.882
x1 = 0.8015	0.961
x1 = 0.807	0.937
x1 = 0.904	0.991

CC(C)[N+](=O)[O-] + c1ccccc1
[1], 293.15 K, 101.33 kPa
Details	viscosity [mPa·s]
x1 = 0.0983	0.631
x1 = 0.2123	0.62
x1 = 0.2863	0.619
x1 = 0.4048	0.622
x1 = 0.5002	0.631
x1 = 0.5981	0.641
x1 = 0.7032	0.661
x1 = 0.7847	0.683
x1 = 0.908	0.731

COC(=O)CC(=O)OC + c1ccccc1
[1], 303.15 K, 101 kPa
Details	viscosity [mPa·s]
x1 = 0.0794	0.6916
x1 = 0.1634	0.8208
x1 = 0.2505	0.9519
x1 = 0.3426	1.078
x1 = 0.4381	1.206
x1 = 0.5395	1.341
x1 = 0.6457	1.456
x1 = 0.7579	1.58
x1 = 0.8751	1.696

COc1ccccc1O + c1ccccc1
[1], 303.15 K, 101 kPa
Details	viscosity [mPa·s]
x2 = 0.1	3.4
x2 = 0.2	2.49
x2 = 0.3	1.97
x2 = 0.4	1.57
x2 = 0.5	1.29
x2 = 0.6	1.04
x2 = 0.7	0.873
x2 = 0.8	0.742
x2 = 0.9	0.641

Ic1ccccc1 + c1ccccc1
viscosity [mPa·s], [1], 101 kPa
Details	298.15 K	308.15 K	318.15 K	323.15 K
x1 = 0.0668	0.646	0.565	0.499	0.469
x1 = 0.0896	0.66	0.578	0.512	0.478
x1 = 0.8	1.274	–	–	0.917

COc1ccccc1O + c1ccncc1
[1], 303.15 K, 101 kPa
Details	viscosity [mPa·s]
x2 = 0.1	5.04
x2 = 0.2	5.38
x2 = 0.25	5.4
x2 = 0.27	5.42
x2 = 0.3	5.4
x2 = 0.4	4.94
x2 = 0.5	4
x2 = 0.6	3.3
x2 = 0.7	2.07
x2 = 0.8	1.48
x2 = 0.9	1.09
